This note sets out measurements from ChEMBL document CHEMBL3745696, “Synthesis and cytotoxic activity of novel hexahydropyrrolo[2,3-b]indole imidazolium salts” (Bioorg Med Chem Lett, 2016).

For test [1], the system named is A549. The test can be described thus: Cytotoxicity against human A549 cells by MTT assay. It counts as functional, cell-based.
A short description of test [2]: Cytotoxicity against human HL60 cells by MTT assay. It counts as functional, cell-based. To be noted: HL-60.
A short description of test [3]: Cytotoxicity against human SMMC7721 cells by MTT assay. Conditions: SMMC-7721. It is filed as functional, cell-based.
Test [4] deals with SW480. The test can be described thus: Cytotoxicity against human SW480 cells by MTT assay. It counts as functional, cell-based.
In test [5] the test system is MCF7. The test can be described thus: Cytotoxicity against human MCF7 cells by MTT assay. It is filed as functional, cell-based.
Test [6] concerns SW480. The test is described as follows: Potency index, ratio IC50 of cisplatin to IC50 of compound for cytotoxicity against human SW480 cells. It counts as functional.
Test [7] is described as follows: Potency index, ratio IC50 of cisplatin to IC50 of compound for cytotoxicity against human SMMC7721 cells. It is filed as functional, SMMC-7721.
For test [8], the system named is A549. The test can be described thus: Potency index, ratio IC50 of cisplatin to IC50 of compound for cytotoxicity against human A549 cells. It is filed as functional.
The test system of test [9] is MCF7. The test is described as follows: Potency index, ratio IC50 of cisplatin to IC50 of compound for cytotoxicity against human MCF7 cells. It is filed as functional.

Structures are written as SMILES. Some results are limits rather than exact numbers.

Turning to `Cc1cc2c(cc1C)[n+](Cc1ccc3ccccc3c1)cn2CC(=O)N1CCC2(C)c3ccccc3N(C)C12` (centres undefined), the IC50 with A549 [1] was found to be 6.18 µM; in [2] it was 1.35 µM; in test [3], 4.03 µM; in the test on SW480 [4] it was 4.54 µM; in the test on MCF7 [5] it was 1.84 µM.
As for `Cc1cc2c(cc1C)[n+](Cc1ccccc1Br)cn2CC(=O)N1CCC2(C)c3ccccc3N(C)C12` (centres undefined), the IC50 in the test with A549 [1] turned out to be 12.7 µM; in test [2], 1.67 µM; in test [3], 5.61 µM; in the test on SW480 [4], 7.24 µM; with MCF7 [5], 6.28 µM.
In the case of `Cc1cc2c(cc1C)[n+](CC(=O)c1ccccc1)cn2CC(=O)N1CCC2(C)c3ccccc3N(C)C12` (centres undefined), the IC50 in the test on A549 [1] is over 20 µM; in test [2] it was 8.03 µM; in test [3], over 20 µM; with SW480 [4], over 20 µM; with MCF7 [5] it was 13.4 µM.
Take `Cc1cc2c(cc1C)[n+](Cc1ccccc1Br)cn2CC(=O)N1CCC2(C)c3ccccc3N(Cc3ccccc3)C12.[Br-]` (centres undefined): the IC50 with A549 [1] worked out at 2.68 µM; in test [2] it was 1.27 µM; in test [3] it was 1.72 µM; with SW480 [4] it was 1.44 µM; with MCF7 [5] it was 1.78 µM. In addition, the “Ratio IC50” value with SW480 [6] was 6.2; in test [7], 4.7; in the test on A549 [8], 2.6.
Take `Cc1cc2c(cc1C)[n+](CC(=O)c1ccc(Br)cc1)cn2CC(=O)N1CCC2(C)c3ccccc3N(C)C12` (centres undefined): the IC50 in the test with A549 [1] was over 20 µM; in test [2] it was 7.31 µM; in test [3] it was 8.72 µM; in the test on SW480 [4], 8.52 µM; in the test on MCF7 [5], 8.28 µM.
As to `Cc1cc2c(cc1C)[n+](CC(=O)c1ccc3ccccc3c1)cn2CC(=O)N1CCC2(C)c3ccccc3N(C)C12` (centres undefined), the IC50 in the test with A549 [1] worked out at 6.47 µM; in [2], 1.6 µM; in test [3], 2.85 µM; with SW480 [4], 5.01 µM; with MCF7 [5], 4.88 µM.
With `Cc1n(CC(=O)N2CCC3(C)c4ccccc4N(Cc4ccccc4)C23)c2ccccc2[n+]1Cc1ccc2ccccc2c1.[Br-]` (centres undefined), the IC50 in the test with A549 [1] was found to be 6.26 µM; in test [2], 1.38 µM; in test [3], 1.8 µM; in the test on SW480 [4] it was 1.64 µM; with MCF7 [5], 1.46 µM. The “Ratio IC50” value in the test on MCF7 [9] turned out to be 7.2.
Take `Cc1cc2c(cc1C)[n+](Cc1ccc(Br)cc1)cn2CC(=O)N1CCC2(C)c3ccccc3N(C)C12` (centres undefined): the IC50 with A549 [1] came to 17.4 µM; in [2], 1.73 µM; in test [3] it was 5.69 µM; in the test with SW480 [4], 6.9 µM; in the test with MCF7 [5], 3.08 µM.
On the same counts, the results for `Cc1ccc(C[n+]2cn(CC(=O)N3CCC4(C)c5ccccc5N(C)C34)c3cc(C)c(C)cc32)cc1` (centres undefined) are 10.5 µM, 1.52 µM, 4.52 µM, 7.57 µM and 5.79 µM.
On the same counts, the results for `COc1ccc(C(=O)C[n+]2cn(CC(=O)N3CCC4(C)c5ccccc5N(C)C34)c3cc(C)c(C)cc32)cc1` (centres undefined) are over 20 µM, 6.23 µM, 7.49 µM, 11.1 µM and 8.15 µM.
For `c1c[nH]cn1` [IMIDAZOLE], in that order: over 20 µM, over 20 µM, over 20 µM, over 20 µM and over 20 µM.
